# Assay results taken from patent US12569463B2, “Method for treating diabetes” (Olatec Therapeutics, Inc., priority 2020, dated 2026).
# Experiment: Fasting glucose in diabetic subjects of the clinical study of oral dapansutrile capsules in NYHA II-III systolic heart failure
# Format: in vivo, human
# [1] = Day 28, 1000 mg per day oral, N = 4
# [2] = Day 28, 2000 mg per day oral, N = 4
# [3] = Day 28, all dapansutrile subjects pooled, N = 14
structure (smiles),measurement,setting,value
"CS(=O)(=O)CCC#N [Dapansutrile, 3-methanesulfonylpropionitrile]",dose response of fasting glucose change (in words),"500 mg, 1000 mg, 2000 mg per day",trend of dose response
same,mean fast glucose level decrease from the baseline level,"2000 mg treatment, Day 14",43.5 mg/dL
same,"Fasting Glucose Level, Change from Baseline, Mean","Day 14 (last day of treatment), 500 mg daily oral, diabetic patients N = 6",-20.0 mg/dL
same,"Fasting Glucose Level, Change from Baseline, Median","Day 14, 500 mg daily oral, N = 6",-18.5 mg/dL
same,"Fasting Glucose Level, Change from Baseline, Mean","Day 14, 1000 mg per day (500 mg twice a day) oral, diabetic patients N = 4",-16.5 mg/dL
same,"Fasting Glucose Level, Change from Baseline, Median","Day 14, 1000 mg per day oral, N = 4",-16.5 mg/dL
same,"Fasting Glucose Level, Change from Baseline, Mean","Day 14, 2000 mg per day (500 mg 4 times a day) oral, diabetic patients N = 4",-43.5 mg/dL
same,"Fasting Glucose Level, Change from Baseline, Median","Day 14, 2000 mg per day oral, N = 4",-47.5 mg/dL
same,"Fasting Glucose Level, Change from Baseline, Mean","Day 14, all dapansutrile subjects pooled (500-2000 mg), N = 14",-25.7 mg/dL
same,"Fasting Glucose Level, Change from Baseline, Median","Day 14, all dapansutrile subjects pooled, N = 14",-32.5 mg/dL
same,decrease of glucose level from the baseline level (in words),"Day 14, all dapansutrile-treated subjects, p value of 0.029",statistically significant decrease
same,"Fasting Glucose Level, Change from Baseline, Mean","Day 28 (14 days after last treatment), 500 mg daily oral, N = 6",25.8 mg/dL
same,drug effect on fasting glucose (in words),"Day 28, 14 days after the last treatment",the drug effect was gone
same,"Fasting Glucose Level, Change from Baseline, Median","Day 28, 500 mg daily oral, N = 6",-1.5 mg/dL
same,"Fasting Glucose Level, Change from Baseline, Mean",[1],7.3 mg/dL
same,"Fasting Glucose Level, Change from Baseline, Median",[1],-7.0 mg/dL
same,"Fasting Glucose Level, Change from Baseline, Mean",[2],-18.0 mg/dL
same,"Fasting Glucose Level, Change from Baseline, Median",[2],-21.5 mg/dL
same,"Fasting Glucose Level, Change from Baseline, Mean",[3],8.0 mg/dL
same,"Fasting Glucose Level, Change from Baseline, Median",[3],-8.0 mg/dL
